Assays:
[1] = Metabolic stability in human liver microsomes; format: in vitro ADME; conditions: up to 120 min
Procedure: Pooled liver microsomes from humans (male) were purchased from Sekisui XenoTech, LLC, Kansas City, KS, USA. Metabolic stability assays were performed in the presence of an NADPH-regenerating system consisting of 5 mM glucose-6-phosphate, 5 U/mL glucose-6-phosphate dehydrogenase, and 1 mM NADP^+. Liver microsomes (20 mg/mL), NADPH-regenerating system, and 4 mM MgCl2·6 H2O in 0.1 M TRIS-HCl-buffer (pH 7.4) were preincubated for 5 min at 37 °C and 750 rpm on a shaker. The reaction was started by adding the preheated compound at 10 mM resulting in a final concentration of 0.1 mM. The reaction was quenched at selected time points (0, 10, 20, 30, 60, and 120 min) by pipetting 100 μL of internal standard (ketoprofen) at a concentration of 150 μM in acetonitrile. The samples were vortexed for 30 s and centrifuged (21910 relative centrifugal force, 4 °C, 20 min). The supernatant was used directly for LC-MS analysis. All compound incubations were conducted at least in triplicates. Additionally, a negative control containing BSA (20 mg/mL) instead of liver microsomes and a positive control using verapamil instead of compound were performed. A limit of 1% organic solvent during incubation was not exceeded. […]

[2] = target: T1, ABL1(F317I)-phosphorylated (Homo sapiens, UniProt P00519, F317I); experiment: KINOMEscan; format: binding; conditions: 1 μM
T1 construct: purchased Eurofins DiscoverX Corporation

AKT2 = AKT2 (Homo sapiens, UniProt P31751); experiment: KINOMEscan; format: binding; conditions: 1 μM
CSNK1G3 = target: T2, CSNK1G3 (Homo sapiens, UniProt Q9Y6M4); experiment: KINOMEscan; format: binding; conditions: 1 μM
T2 construct: purchased Eurofins DiscoverX Corporation

CSNK2A1 = target: T3, CSNK2A1 (Homo sapiens, UniProt P68400); experiment: KINOMEscan; format: binding; conditions: 1 μM
T3 construct: purchased Eurofins DiscoverX Corporation

EGFR = EGFR (Homo sapiens, UniProt P00533); experiment: KINOMEscan; format: binding; conditions: 1 μM
EGFR(E746-A750del) = EGFR(E746-A750del) (Homo sapiens, UniProt P00533, DEL746-750); experiment: KINOMEscan; format: binding; conditions: 1 μM
EGFR(L861Q) = EGFR(L861Q) (Homo sapiens, UniProt P00533, L861Q); experiment: KINOMEscan; format: binding; conditions: 1 μM
FLT1 = FLT1 (Homo sapiens, UniProt P17948); experiment: KINOMEscan; format: binding; conditions: 1 μM
INSR = target: T4, INSR (Homo sapiens, UniProt P06213); experiment: KINOMEscan; format: binding; conditions: 1 μM
T4 construct: purchased Eurofins DiscoverX (KINOMEscan)

IRAK4 = target: T5, IRAK4 (Homo sapiens, UniProt Q9NWZ3); experiment: KINOMEscan; format: binding; conditions: 1 μM
T5 construct: purchased Eurofins DiscoverX (KINOMEscan)

LZK = target: T6, LZK (Homo sapiens, UniProt O43283); experiment: KINOMEscan; format: binding; conditions: 1 μM
T6 construct: purchased Eurofins DiscoverX Corporation

MAP3K15 = target: T7, MAP3K15 (Homo sapiens, UniProt Q6ZN16); experiment: KINOMEscan; format: binding; conditions: 1 μM
T7 construct: purchased Eurofins DiscoverX Corporation

MAP3K2 = target: T8, MAP3K2 (Homo sapiens, UniProt Q9Y2U5); experiment: KINOMEscan; format: binding; conditions: 1 μM
T8 construct: purchased Eurofins DiscoverX Corporation

MARK1 = target: T9, MARK1 (Homo sapiens, UniProt Q9P0L2); experiment: KINOMEscan; format: binding; conditions: 1 μM
T9 construct: purchased Eurofins DiscoverX Corporation

MET(Y1235D) = target: T10, MET(Y1235D) (Homo sapiens, UniProt P08581, Y1235D); experiment: KINOMEscan; format: binding; conditions: 1 μM
T10 construct: purchased Eurofins DiscoverX Corporation

PAK1 = PAK1 (Homo sapiens, UniProt Q13153); experiment: KINOMEscan; format: binding; conditions: 1 μM
PDGFRA = PDGFRA (Homo sapiens, UniProt P16234); experiment: KINOMEscan; format: binding; conditions: 1 μM
PHKG1 = PHKG1 (Homo sapiens, UniProt Q16816); experiment: KINOMEscan; format: binding; conditions: 1 μM
PIK3C2G = PIK3C2G (Homo sapiens, UniProt O75747); experiment: KINOMEscan; format: binding; conditions: 1 μM
PIK3CD = PIK3CD (Homo sapiens, UniProt O00329); experiment: KINOMEscan; format: binding; conditions: 1 μM
RIPK2 = RIPK2 (Homo sapiens, UniProt O43353); experiment: KINOMEscan; format: binding; conditions: 1 μM
S6K1 = S6K1 (Homo sapiens, UniProt P23443); experiment: KINOMEscan; format: binding; conditions: 1 μM
STK16 = STK16 (Homo sapiens, UniProt O75716); experiment: KINOMEscan; format: binding; conditions: 1 μM
STK33 = STK33 (Homo sapiens, UniProt Q9BYT3); experiment: KINOMEscan; format: binding; conditions: 1 μM
TAK1 = target: T11, TAK1 (Homo sapiens, UniProt O43318); experiment: KINOMEscan; format: binding; conditions: 1 μM
T11 construct: purchased Eurofins DiscoverX Corporation

TEC = target: T12, TEC (Homo sapiens, UniProt P42680); experiment: KINOMEscan; format: binding; conditions: 1 μM
T12 construct: purchased Eurofins DiscoverX Corporation

ULK1 = ULK1 (Homo sapiens, UniProt O75385); experiment: KINOMEscan; format: binding; conditions: 1 μM
Chain of ULK1 (O75385 whole entry): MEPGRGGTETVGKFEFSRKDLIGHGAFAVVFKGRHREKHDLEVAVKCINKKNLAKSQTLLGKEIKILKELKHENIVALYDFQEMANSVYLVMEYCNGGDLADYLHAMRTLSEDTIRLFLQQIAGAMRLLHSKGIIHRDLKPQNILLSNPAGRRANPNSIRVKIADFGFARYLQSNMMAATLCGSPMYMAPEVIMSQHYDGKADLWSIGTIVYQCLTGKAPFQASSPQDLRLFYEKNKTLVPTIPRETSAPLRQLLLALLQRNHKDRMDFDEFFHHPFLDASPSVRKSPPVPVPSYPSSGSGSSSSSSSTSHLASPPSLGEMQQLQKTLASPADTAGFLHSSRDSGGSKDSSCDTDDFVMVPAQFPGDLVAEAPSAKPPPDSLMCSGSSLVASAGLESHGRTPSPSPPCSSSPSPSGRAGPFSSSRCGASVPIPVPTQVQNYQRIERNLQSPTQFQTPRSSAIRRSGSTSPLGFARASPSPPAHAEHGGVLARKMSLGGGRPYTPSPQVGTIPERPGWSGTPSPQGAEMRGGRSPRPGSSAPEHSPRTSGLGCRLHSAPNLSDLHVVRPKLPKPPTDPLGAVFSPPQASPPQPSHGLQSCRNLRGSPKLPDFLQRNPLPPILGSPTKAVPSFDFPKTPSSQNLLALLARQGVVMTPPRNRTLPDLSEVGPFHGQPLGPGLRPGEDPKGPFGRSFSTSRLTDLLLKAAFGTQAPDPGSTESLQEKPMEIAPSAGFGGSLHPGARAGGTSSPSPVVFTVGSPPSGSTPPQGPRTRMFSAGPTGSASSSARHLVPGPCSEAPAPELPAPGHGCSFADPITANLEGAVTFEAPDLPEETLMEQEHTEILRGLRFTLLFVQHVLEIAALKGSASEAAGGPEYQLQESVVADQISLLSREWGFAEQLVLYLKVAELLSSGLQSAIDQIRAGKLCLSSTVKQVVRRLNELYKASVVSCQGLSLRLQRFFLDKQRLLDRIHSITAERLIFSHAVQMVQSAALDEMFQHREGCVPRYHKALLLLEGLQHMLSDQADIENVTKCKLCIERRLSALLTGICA

Chain of PDGFRA (P16234 24-1089): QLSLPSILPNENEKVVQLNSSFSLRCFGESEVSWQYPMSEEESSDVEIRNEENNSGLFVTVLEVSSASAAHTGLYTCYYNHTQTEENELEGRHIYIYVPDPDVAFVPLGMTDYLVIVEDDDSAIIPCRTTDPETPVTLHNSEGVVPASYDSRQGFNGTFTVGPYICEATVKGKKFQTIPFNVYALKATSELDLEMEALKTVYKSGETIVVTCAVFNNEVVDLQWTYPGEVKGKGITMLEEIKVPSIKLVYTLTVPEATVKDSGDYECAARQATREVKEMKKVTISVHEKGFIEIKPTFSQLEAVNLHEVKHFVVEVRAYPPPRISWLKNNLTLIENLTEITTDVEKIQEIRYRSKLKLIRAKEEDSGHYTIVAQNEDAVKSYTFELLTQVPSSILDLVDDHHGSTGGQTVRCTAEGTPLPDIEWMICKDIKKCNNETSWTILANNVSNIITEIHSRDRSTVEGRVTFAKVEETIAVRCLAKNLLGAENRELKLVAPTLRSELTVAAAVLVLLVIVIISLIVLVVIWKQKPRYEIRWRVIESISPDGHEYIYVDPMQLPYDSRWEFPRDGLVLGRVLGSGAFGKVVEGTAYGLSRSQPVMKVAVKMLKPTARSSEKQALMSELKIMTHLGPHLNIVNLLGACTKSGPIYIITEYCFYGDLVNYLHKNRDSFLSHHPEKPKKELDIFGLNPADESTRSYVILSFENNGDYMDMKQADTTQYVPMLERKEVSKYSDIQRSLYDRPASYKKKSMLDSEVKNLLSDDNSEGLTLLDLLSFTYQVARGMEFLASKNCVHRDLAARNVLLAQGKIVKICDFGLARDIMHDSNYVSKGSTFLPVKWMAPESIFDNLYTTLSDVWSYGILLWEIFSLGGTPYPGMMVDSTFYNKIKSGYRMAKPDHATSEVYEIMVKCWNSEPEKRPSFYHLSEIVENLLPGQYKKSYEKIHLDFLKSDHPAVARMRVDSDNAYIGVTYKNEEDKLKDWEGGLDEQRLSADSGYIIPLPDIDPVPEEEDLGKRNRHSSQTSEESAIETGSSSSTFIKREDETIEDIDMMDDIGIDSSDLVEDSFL
Chain of FLT1 (P17948 27-1338): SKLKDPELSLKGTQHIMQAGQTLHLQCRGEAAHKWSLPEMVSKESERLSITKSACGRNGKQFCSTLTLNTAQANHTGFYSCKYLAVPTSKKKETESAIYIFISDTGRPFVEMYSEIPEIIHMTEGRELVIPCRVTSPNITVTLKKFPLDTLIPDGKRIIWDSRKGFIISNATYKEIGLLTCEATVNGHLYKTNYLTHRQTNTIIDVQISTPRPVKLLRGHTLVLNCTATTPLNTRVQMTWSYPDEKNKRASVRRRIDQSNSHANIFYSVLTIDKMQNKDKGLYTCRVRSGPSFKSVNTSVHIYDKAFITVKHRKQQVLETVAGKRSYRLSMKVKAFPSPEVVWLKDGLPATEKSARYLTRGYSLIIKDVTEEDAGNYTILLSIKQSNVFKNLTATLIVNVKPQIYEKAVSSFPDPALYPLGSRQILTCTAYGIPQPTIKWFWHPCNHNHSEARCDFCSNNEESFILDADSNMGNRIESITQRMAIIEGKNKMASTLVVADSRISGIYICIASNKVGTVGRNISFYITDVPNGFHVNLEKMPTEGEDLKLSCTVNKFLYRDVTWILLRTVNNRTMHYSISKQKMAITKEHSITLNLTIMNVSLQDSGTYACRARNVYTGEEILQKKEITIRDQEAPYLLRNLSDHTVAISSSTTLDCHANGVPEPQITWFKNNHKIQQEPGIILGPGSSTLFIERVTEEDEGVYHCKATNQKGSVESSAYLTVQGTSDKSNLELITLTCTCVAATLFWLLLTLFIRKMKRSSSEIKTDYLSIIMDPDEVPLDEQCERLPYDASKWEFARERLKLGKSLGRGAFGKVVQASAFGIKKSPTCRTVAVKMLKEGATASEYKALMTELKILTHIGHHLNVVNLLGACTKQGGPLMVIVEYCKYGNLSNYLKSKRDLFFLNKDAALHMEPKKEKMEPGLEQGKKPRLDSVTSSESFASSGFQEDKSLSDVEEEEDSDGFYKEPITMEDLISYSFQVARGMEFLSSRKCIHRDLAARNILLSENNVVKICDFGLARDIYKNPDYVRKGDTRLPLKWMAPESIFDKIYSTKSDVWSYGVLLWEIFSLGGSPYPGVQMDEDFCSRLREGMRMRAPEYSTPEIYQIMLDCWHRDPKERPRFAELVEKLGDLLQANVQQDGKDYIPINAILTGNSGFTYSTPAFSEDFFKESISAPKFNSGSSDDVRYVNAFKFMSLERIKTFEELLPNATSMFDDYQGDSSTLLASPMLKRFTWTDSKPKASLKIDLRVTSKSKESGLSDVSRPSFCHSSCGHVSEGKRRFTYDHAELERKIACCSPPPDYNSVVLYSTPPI
Chain of PIK3CD (O00329 whole entry): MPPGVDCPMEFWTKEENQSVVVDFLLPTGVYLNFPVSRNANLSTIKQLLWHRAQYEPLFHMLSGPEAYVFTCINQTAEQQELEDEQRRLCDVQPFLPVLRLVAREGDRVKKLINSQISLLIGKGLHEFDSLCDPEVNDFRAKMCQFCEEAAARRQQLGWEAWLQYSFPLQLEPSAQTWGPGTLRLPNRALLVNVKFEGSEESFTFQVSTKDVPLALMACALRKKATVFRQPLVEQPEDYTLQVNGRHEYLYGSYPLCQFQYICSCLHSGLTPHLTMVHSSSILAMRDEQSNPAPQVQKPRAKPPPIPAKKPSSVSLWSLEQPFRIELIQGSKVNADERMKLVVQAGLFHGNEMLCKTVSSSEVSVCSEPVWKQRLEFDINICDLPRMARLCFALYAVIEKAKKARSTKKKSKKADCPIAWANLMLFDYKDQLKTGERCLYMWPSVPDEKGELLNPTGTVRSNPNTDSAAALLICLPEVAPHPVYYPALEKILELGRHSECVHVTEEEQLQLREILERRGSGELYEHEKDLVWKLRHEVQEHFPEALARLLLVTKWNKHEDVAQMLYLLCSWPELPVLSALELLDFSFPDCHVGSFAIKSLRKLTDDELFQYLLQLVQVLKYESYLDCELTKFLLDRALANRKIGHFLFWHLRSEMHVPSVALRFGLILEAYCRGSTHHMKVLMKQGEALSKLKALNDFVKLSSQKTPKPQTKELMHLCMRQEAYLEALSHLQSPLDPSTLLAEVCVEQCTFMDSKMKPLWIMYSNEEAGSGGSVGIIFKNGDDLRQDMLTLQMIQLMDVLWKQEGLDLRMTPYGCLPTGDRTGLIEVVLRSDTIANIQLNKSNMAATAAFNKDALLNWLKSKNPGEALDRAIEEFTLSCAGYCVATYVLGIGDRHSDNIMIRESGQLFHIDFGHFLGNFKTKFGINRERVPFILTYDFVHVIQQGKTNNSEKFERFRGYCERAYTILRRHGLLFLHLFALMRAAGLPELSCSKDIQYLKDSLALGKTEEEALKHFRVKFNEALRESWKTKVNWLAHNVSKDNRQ
T12 sequence (P42680 whole entry): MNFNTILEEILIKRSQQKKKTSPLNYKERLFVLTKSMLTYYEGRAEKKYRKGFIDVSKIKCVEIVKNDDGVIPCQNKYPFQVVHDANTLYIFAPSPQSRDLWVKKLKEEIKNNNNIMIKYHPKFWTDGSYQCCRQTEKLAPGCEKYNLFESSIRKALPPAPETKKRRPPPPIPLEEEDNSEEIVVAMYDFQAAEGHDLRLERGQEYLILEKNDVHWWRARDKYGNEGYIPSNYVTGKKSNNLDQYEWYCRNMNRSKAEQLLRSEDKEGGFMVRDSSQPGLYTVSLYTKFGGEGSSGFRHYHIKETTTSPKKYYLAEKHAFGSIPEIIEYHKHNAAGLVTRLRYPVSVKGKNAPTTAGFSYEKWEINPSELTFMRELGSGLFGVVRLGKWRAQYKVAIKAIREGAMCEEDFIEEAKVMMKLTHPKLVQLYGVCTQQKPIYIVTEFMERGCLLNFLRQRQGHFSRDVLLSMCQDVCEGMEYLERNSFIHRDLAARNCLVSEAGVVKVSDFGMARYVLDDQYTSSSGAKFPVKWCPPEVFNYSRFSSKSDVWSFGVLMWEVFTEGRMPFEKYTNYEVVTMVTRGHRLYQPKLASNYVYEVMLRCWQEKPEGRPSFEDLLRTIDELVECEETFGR

C=CC(=O)Nc1ccc(OC)c(Nc2cc(-c3[nH]c(CC)nc3-c3cccc(NC(=O)c4cccc5c4NC(=O)c4ccccc4N5)c3)ccn2)c1 [Compound 4]
metabolic stability in liver microsomes [1]: metabolically stable
POC [2]: 84% of control
POC (AKT2): 91% of control
POC (CSNK1G3): 98% of control
POC (CSNK2A1): 100% of control
POC (EGFR): 17% of control
POC (EGFR(E746-A750del)): 13% of control
POC (EGFR(L861Q)): 2.7% of control
POC (FLT1): 100% of control
POC (INSR): 97% of control
POC (IRAK4): 43% of control
POC (LZK): 90% of control
POC (MAP3K15): 74% of control
POC (MAP3K2): 100% of control
POC (MARK1): 92% of control
POC (MET(Y1235D)): 97% of control
POC (PAK1): 100% of control
POC (PDGFRA): 69% of control
POC (PHKG1): 96% of control
POC (PIK3C2G): 50% of control
POC (PIK3CD): 71% of control
POC (RIPK2): 62% of control
POC (S6K1): 100% of control
POC (STK16): 100% of control
POC (STK33): 100% of control
POC (TAK1): 95% of control
POC (TEC): 45% of control
POC (ULK1): 100% of control
